Measurements: patent publication EP3730489A1, “HETEROARYL COMPOUNDS AS AGROCHEMICAL FUNGICIDES” (BASF SE, priority 2019, dated 2020)

How the values were obtained:
Assay type in all cases: cell-based
Septoria tritici = assay: Activity against leaf blotch on wheat caused by Septoria tritici (Septtr), microtiter plate test; conditions: relative growth vs active compound-free control (100%), measured at 405 nm 7 days after the inoculation
Experimental: (§1) The active compounds were formulated separately as a stock solution having a concentration of 10000 ppm in dimethyl sulfoxide.
3. Activity against leaf blotch on wheat caused by Septoria tritici (Septtr)
(§2) The stock solutions were mixed according to the ratio, pipetted onto a micro titer plate (MTP) and diluted with water to the stated concentrations. A spore suspension of Septoria tritici in an aqueous biomalt or yeast-bactopeptone-glycerine solution was then added. The plates were placed in a water vapor-saturated chamber at a temperature of 18°C. Using an absorption photometer, the MTPs were measured at 405 nm 7 days after the inoculation.
(§3) The measured parameters were compared to the growth of the active compound-free control variant (100%) and the fungus-free and active compound-free blank value to determine the relative growth in % of the pathogens in the respective active compounds.

Botrytis cinerea = assay: Activity against the grey mold Botrytis cinerea in the microtiterplate test (Botrci); conditions: relative growth vs active compound-free control (100%), measured at 405 nm 7 days after the inoculation
Experimental: as §1
1. Activity against the grey mold Botrytis cinerea in the microtiterplate test (Botrci)
as §2, with “Botrci cinerea” for “Septoria tritici”, “yeast-bactopeptone-sodiumacetate” for “yeast-bactopeptone-glycerine”
as §3

Fusarium culmorum = assay: Activity against Fusarium culmorum (Fusacu), microtiter plate test; conditions: relative growth vs active compound-free control (100%), measured at 405 nm 7 days after the inoculation; for activity at 31 ppm: Fusarium culmorum, 168 h
Experimental: as §1
4. Activity against Fusarium culmorum (Fusacu)
as §2, with “Fusarium culmorum” for “Septoria tritici”
as §3

Row | Molecule | growth (%) at 31ppm Septtr (Septoria tritici) | growth (%) at 31ppm Botrci (Botrytis cinerea) | activity at 31 ppm (Fusarium culmorum) | growth (%) at 31ppm Fusacu (Fusarium culmorum)
1 | C#Cc1ccc2[nH]cc(-c3sccc3Cl)c2c1 [Example P2] | 12% | 1% | 1% | 
2 | FC(F)(F)c1ncoc1-c1c[nH]c2ccc(Br)cc12 [Example P6] | 2% | 1% |  | 
3 | Fc1ncc2[nH]cc(-c3sccc3C(F)(F)F)c2n1 [Example P17] |  |  | 14% | 
4 | Fc1cnc2[nH]cc(-c3ocnc3C(F)(F)F)c2c1 [Example 8, 5-(5-fluoro-1H-pyrrolo[2,3-b]pyridin-3-yl)-4-(trifluoromethyl)oxazole] |  |  | 6% | 
5 | N#Cc1ccc2[nH]cc(-c3sccc3Br)c2c1 [Example P4] |  |  | 17% | 
6 | Brc1ccc2[nH]cc(-c3sccc3Br)c2c1 [Example P3] | 0% | 0% | 0% | 
7 | Clc1ccsc1-c1c[nH]c2ccc(Br)cc12 [Example P1] | 8% | 0% | 1% | 
8 | FC(F)Oc1ccc2[nH]cc(-c3sccc3C(F)(F)F)c2n1 [Example P5] | 4% | 1% | 0% | 
9 | 3-[3-(trifluoromethyl)-2-thienyl]-1H-indole-5-carbonitrile [Example 1] | 14% |  |  | 0%
10 | Fc1cnc2[nH]cc(-c3ocnc3I)c2c1 [Example 9, 5-(5-fluoro-1H-pyrrolo[2,3-b]pyridin-3-yl)-4-iodooxazole] |  |  | 11% | 
11 | N#Cc1ccc2[nH]cc(-c3ocnc3C(F)(F)F)c2c1 [Example 2, 3-[4-(trifluoromethyl)oxazol-5-yl]-1H-indole-5-carbonitrile] |  | 6% | 7% | 
12 | C#Cc1cnc2[nH]cc(-c3ocnc3C(F)F)c2c1 [Example P10] |  |  | 6% | 
13 | C#Cc1cnc2[nH]cc(-c3ocnc3Br)c2c1 [Example P8] | 15% |  | 0% | 
14 | C#Cc1cnc2[nH]cc(-c3ocnc3C(F)(F)F)c2c1 [Example 6, 5-(5-ethynyl-1H-pyrrolo[2,3-b]pyridin-3-yl)-4-(trifluoromethyl)oxazole] | 12% | 5% | 1% | 
